Reference: patent publication US10160753B2, “Indazole compounds as IRAK4 inhibitors” (Aurigene Discovery Technologies Limited, priority 2014, dated 2018)
Where a name gives a salt, the structure may show the parent alone.

target: T1, recombinant IRAK-4 kinase (Homo sapiens, UniProt Q9NWZ3); assay: IRAK-4 Biochemical Assay (TR-FRET); conditions: 30 min pre-incubation, 100 nM Biotin Histone H3, 20 μM ATP, read-out: IC50 values for IRAK4 activity
T1 construct: purchased Millipore, USA
T1 sequence (Q9NWZ3 1-460): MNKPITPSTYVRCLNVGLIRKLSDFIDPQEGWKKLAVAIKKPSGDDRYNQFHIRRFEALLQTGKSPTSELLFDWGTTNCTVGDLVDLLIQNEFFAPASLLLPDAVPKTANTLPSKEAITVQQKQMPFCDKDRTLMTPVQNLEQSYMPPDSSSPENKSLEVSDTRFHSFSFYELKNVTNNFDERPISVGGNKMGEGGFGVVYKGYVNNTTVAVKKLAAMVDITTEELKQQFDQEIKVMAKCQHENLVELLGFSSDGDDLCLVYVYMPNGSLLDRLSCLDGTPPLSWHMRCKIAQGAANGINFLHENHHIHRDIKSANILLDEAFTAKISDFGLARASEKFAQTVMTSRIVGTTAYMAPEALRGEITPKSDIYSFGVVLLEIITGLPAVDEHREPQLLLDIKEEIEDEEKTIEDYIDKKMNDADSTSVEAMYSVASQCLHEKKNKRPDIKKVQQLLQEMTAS
Description: Compounds were tested for their potential to inhibit IRAK-4 enzyme in a TR-FRET assay using recombinant IRAK-4 kinase from Millipore, USA. The assay buffer was 50 mM Tris-HCl pH 7.5, 20 mM MgCl2, 1 mM EGTA, 2 mM DTT, 3 mM MnCl2 and 0.01% Tween 20.5 ng of IRAK-4 kinase was used for the assay. After pre-incubation of enzyme with test compound for 30 minutes at room temperature, a substrate mixture containing 100 nM Biotin Histone H3 (Millipore, USA) and 20 μM ATP (Sigma, USA) was added and the reaction was incubated for 30 min. Post incubation, the reaction was stopped by the addition of stop mix containing 40 mM EDTA, 1 nM of Europium-Anti-Phospho-Histone H3 (Ser10) antibody (Perkin Elmer, USA) and 20 nM SureLight Allophycocyanin-Streptavidin (Perkin Elmer, USA). The fluorescence emission at 615 nm and 665 nm were measured at an excitation of 340 nm and the percent inhibition was estimated from the ratio of the fluorescence intensities [(F665/F615)×10000]. The compounds were initially screened at 1 μM and 10 μM concentrations and potent compounds (>50% inhibition at 1 μM) were taken for dose response studies. The IC50 values were estimated by fitting the dose-response data to sigmoidal dose response (variable slope), curve fitting program using Graphpad Prism software Version 6.01.

Question: For `C[C@H](O)Cn1cc(-c2cccc(C(=O)Nc3cc4cn(C)nc4cc3N3CCC(CO)CC3)n2)cn1` [Example 92, (S)—N-(6-(4-(hydroxymethyl)piperidin-1-yl)-2-methyl-2H-indazol-5-yl)-6-(1-(2-hydroxypropyl)-1H-pyrazol-4-yl)picolinamide], which IC50 is on record?
Answer: < 0.05 µM

Question: For `COCCn1ncc2cc(NC(=O)c3coc(-c4ccnc(C)c4)n3)c(N3CCC(N)CC3)cc21` [Example 108, N-(6-(4-aminopiperidin-1-yl)-1-(2-methoxyethyl)-1H-indazol-5-yl)-2-(2-methylpyridin-4-yl)oxazole-4-carboxamide hydrochloride], which IC50 is on record?
Answer: < 0.05 µM

Question: For `C[C@@H](O)Cn1cc(-c2cccc(C(=O)Nc3cc4cn(C)nc4cc3N3CCCCC3)n2)cn1` [Example 43, (R)-6-(1-(2-hydroxypropyl)-1H-pyrazol-4-yl)-N-(2-methyl-6-(piperidin-1-yl)-2H-indazol-5-yl)picolinamide], which IC50 is on record?
Answer: < 0.05 µM

Question: For `CC(O)CNc1cccc(C(=O)Nc2cc3cn(C)nc3cc2N2CCCCC2)n1` (centres unmarked) [Example 57, 6-((2-hydroxypropyl)amino)-N-(2-methyl-6-(piperidin-1-yl)-2H-indazol-5-yl)picolinamide], which IC50 is on record?
Answer: < 0.05 µM

Question: How did the IC50 turn out when `Cc1cc(-c2nc(C(=O)Nc3cc4cn(C5CCCC5)nc4cc3C#N)co2)ccn1` [Example 5, N-(6-cyano-2-cyclopentyl-2H-indazol-5-yl)-2-(2-methylpyridin-4-yl) oxazole-4-carboxamide] was run?
Answer: < 0.05 µM

Question: With `Cc1cc(-c2nc(C(=O)Nc3cc4cn(C)nc4cc3C3CCCCC3)co2)ccn1` [Example 11, N-(6-cyclohexyl-2-methyl-2H-indazol-5-yl)-2-(2-methylpyridin-4-yl)oxazole-4-carboxamide hydrochloride] as the molecule, how does the IC50 read?
Answer: < 0.05 µM

Question: With `COCCn1nc(C)c2cc(NC(=O)c3coc(-c4ccnc(C)c4)n3)c(N3CCC(CO)CC3)cc21` [Example 110, N-(6-(4-(hydroxymethyl)piperidin-1-yl)-1-(2-methoxyethyl)-3-methyl-1H-indazol-5-yl)-2-(2-methylpyridin-4-yl)oxazole-4-carboxamide] as the molecule, how does the IC50 read?
Answer: < 0.05 µM

Question: For `Cc1cc(-c2nc(C(=O)Nc3cc4cnn(C)c4cc3N3CCC(CO)CC3)co2)ccn1` [Example 89, N-(6-(4-(hydroxymethyl)piperidin-1-yl)-1-methyl-1H-indazol-5-yl)-2-(2-methylpyridin-4-yl)oxazole-4-carboxamide], which IC50 is on record?
Answer: < 0.05 µM

Question: `COCCn1ncc2cc(NC(=O)c3coc(-c4ccnc(C)c4)n3)c(N3CCC(CO)CC3)cc21` [Example 94, N-(6-(4-(hydroxymethyl)piperidin-1-yl)-1-(2-methoxyethyl)-1H-indazol-5-yl)-2-(2-methylpyridin-4-yl)oxazole-4-carboxamide] was tested. Which IC50 did it give?
Answer: < 0.05 µM

Question: `COc1cc(-c2nc(C(=O)Nc3cc4cn(C)nc4cc3N3CCC(CO)CC3)co2)ccn1` [Example 97, N-(6-(4-(hydroxymethyl)piperidin-1-yl)-2-methyl-2H-indazol-5-yl)-2-(2-methoxypyridin-4-yl)oxazole-4-carboxamide] was tested. Which IC50 did it give?
Answer: < 0.05 µM

Question: How did the IC50 turn out when `COCCn1cc2cc(NC(=O)c3coc(-c4ccnc(C)c4)n3)c(N3CCC(CO)CC3)cc2n1` [Example 96, N-(6-(4-(hydroxymethyl)piperidin-1-yl)-2-(2-methoxyethyl)-2H-indazol-5-yl)-2-(2-methylpyridin-4-yl)oxazole-4-carboxamide] was run?
Answer: < 0.05 µM

Question: Which IC50 does the source give for `Cc1cc(-c2nc(C(=O)Nc3cc4cnn(C)c4cc3N3CCCC3)co2)ccn1` [Example 62, N-(1-methyl-6-(pyrrolidin-1-yl)-1H-indazol-5-yl)-2-(2-methylpyridin-4-yl)oxazole-4-carboxamide] here?
Answer: < 0.05 µM

Question: How did the IC50 turn out when `CNc1cc(-c2nc(C(=O)Nc3cc4cn(C)nc4cc3N3CCCCC3)co2)ccn1` [Example 122, N-(2-methyl-6-(piperidin-1-yl)-2H-indazol-5-yl)-2-(2-(methylamino)pyridin-4-yl)oxazole-4-carboxamide hydrochloride] was run?
Answer: < 0.05 µM

Question: Which IC50 does the source give for `Cc1ccc(-c2nc(C(=O)Nc3cc4cn(C)nc4cc3N3CCCCC3)co2)cn1` [Example 25, N-(2-methyl-6-(piperidin-1-yl)-2H-indazol-5-yl)-2-(6-methylpyridin-3-yl)oxazole-4-carboxamide] here?
Answer: < 0.05 µM

Question: Which IC50 does the source give for `COc1ccc(-c2nc(C(=O)Nc3cc4cn(C)nc4cc3N3CCCCC3)co2)cn1` [Example 21, 2-(6-methoxypyridin-3-yl)-N-(2-methyl-6-(piperidin-1-yl)-2H-indazol-5-yl)oxazole-4-carboxamide] here?
Answer: < 0.05 µM

Question: Which IC50 does the source give for `Cc1cc(-c2nc(C(=O)Nc3cc4c(C)nn(C)c4cc3N3CCC(O)CC3)co2)ccn1` [Example 81, N-(6-(4-hydroxypiperidin-1-yl)-1,3-dimethyl-1H-indazol-5-yl)-2-(2-methylpyridin-4-yl)oxazole-4-carboxamide] here?
Answer: < 0.05 µM

Question: `Cc1cc(-c2nc(C(=O)Nc3cc4c(C)nn(C)c4cc3N3CCC(CO)CC3)co2)ccn1` [Example 111, N-(6-(4-(hydroxymethyl)piperidin-1-yl)-1,3-dimethyl-1H-indazol-5-yl)-2-(2-methylpyridin-4-yl)oxazole-4-carboxamide] was tested. Which IC50 did it give?
Answer: < 0.05 µM

Question: With `Cn1cc2cc(NC(=O)c3coc(N4CC[C@H](O)C4)n3)c(C3CC3)cc2n1` [Example 55, (S)—N-(6-cyclopropyl-2-methyl-2H-indazol-5-yl)-2-(3-hydroxypyrrolidin-1-yl)oxazole-4-carboxamide] as the molecule, how does the IC50 read?
Answer: 0.05 to 0.1 µM

Question: How did the IC50 turn out when `C[C@H](O)Cn1cc(-c2cccc(C(=O)Nc3cc4cn(C)nc4cc3C3CC3)n2)cn1` [Example 47, (S)—N-(6-cyclopropyl-2-methyl-2H-indazol-5-yl)-6-(1-(2-hydroxypropyl)-1H-pyrazol-4-yl)picolinamide] was run?
Answer: < 0.05 µM

Question: For `COCCn1ncc2cc(NC(=O)c3coc(-c4ccnc(C)c4)n3)c(N3CCC(O)CC3)cc21` [Example 75, N-(6-(4-hydroxypiperidin-1-yl)-1-(2-methoxyethyl)-1H-indazol-5-yl)-2-(2-methylpyridin-4-yl)oxazole-4-carboxamide], which IC50 is on record?
Answer: < 0.05 µM

Question: With `Cn1cc2cc(NC(=O)c3cccc(-c4cn[nH]c4)n3)c(N3CCCCC3)cc2n1` [Example 1, N-(2-methyl-6-(piperidin-1-yl)-2H-indazol-5-yl)-6-(1H-pyrazol-4-yl) picolinamide] as the molecule, how does the IC50 read?
Answer: < 0.05 µM

Question: With `Cn1cc2cc(NC(=O)c3coc(N4CC[C@H](N)C4)n3)c(C3CC3)cc2n1` [Example 54, (S)-2-(3-aminopyrrolidin-1-yl)-N-(6-cyclopropyl-2-methyl-2H-indazol-5-yl)oxazole-4-carboxamide] as the molecule, how does the IC50 read?
Answer: > 0.1 µM

Question: `Cn1cc2cc(NC(=O)c3cccc(-c4cn[nH]c4)n3)c(C3CCCCC3)cc2n1` [Example 13, N-(6-cyclohexyl-2-methyl-2H-indazol-5-yl)-6-(1H-pyrazol-4-yl)picolinamide hydrochloride] was tested. Which IC50 did it give?
Answer: < 0.05 µM

Question: Which IC50 does the source give for `Cn1cc2cc(NC(=O)c3cccc(N4CC[C@H](N)C4)n3)c(C3CC3)cc2n1` [Example 48, (S)-6-(3-aminopyrrolidin-1-yl)-N-(6-cyclopropyl-2-methyl-2H-indazol-5-yl)picolinamide] here?
Answer: > 0.1 µM

Question: `Cc1cc(-c2ccc(C(=O)Nc3cc4cn(C)nc4cc3N3CCCC(O)C3)o2)ccn1` (centres unmarked) [Example 70, N-(6-(3-hydroxypiperidin-1-yl)-2-methyl-2H-indazol-5-yl)-5-(2-methylpyridin-4-yl)furan-2-carboxamide] was tested. Which IC50 did it give?
Answer: < 0.05 µM

Question: Which IC50 does the source give for `Cn1cc2cc(NC(=O)c3cccc(-c4ccc(F)nc4)n3)c(N3CCCCC3)cc2n1` [Example 12, 6′-fluoro-N-(2-methyl-6-(piperidin-1-yl)-2H-indazol-5-yl)-[2,3′-bipyridine]-6-carboxamide hydrochloride] here?
Answer: < 0.05 µM

Question: `Cc1cc(-c2nc(C(=O)Nc3cc4cn(C)nc4cc3N3CCC(F)CC3)co2)ccn1` [Example 91, N-(6-(4-fluoropiperidin-1-yl)-2-methyl-2H-indazol-5-yl)-2-(2-methylpyridin-4-yl)oxazole-4-carboxamide hydrochloride] was tested. Which IC50 did it give?
Answer: < 0.05 µM

Question: With `Cn1cc2cc(NC(=O)c3coc(-c4ccnc(N)c4)n3)c(N3CCC(F)CC3)cc2n1` [Example 90, 2-(2-aminopyridin-4-yl)-N-(6-(4-fluoropiperidin-1-yl)-2-methyl-2H-indazol-5-yl)oxazole-4-carboxamide hydrochloride] as the molecule, how does the IC50 read?
Answer: < 0.05 µM

Question: Which IC50 does the source give for `Cn1cc2cc(NC(=O)c3coc(-c4ccnc(N)c4)n3)c(N3CCC(O)CC3)cc2n1` [Example 93, 2-(2-aminopyridin-4-yl)-N-(6-(4-hydroxypiperidin-1-yl)-2-methyl-2H-indazol-5-yl)oxazole-4-carboxamide hydrochloride] here?
Answer: < 0.05 µM
